Measurements published in PubChem BioAssay AID248 (DTP/NCI, 2004).
Several values for one entry are separate records, joined by “and”; a condition that tells them apart may be missing. Equal values may be shown once. Toxic doses and inconclusive results are not listed. No stated cut-off is given here; in the data, active means T/C of 150% or more; inactive means T/C below 125%. Peptide text beside a SMILES is read from it. * marks the point of attachment. Cbz = O=C(OCc1ccccc1)*; Bn = c1ccc(C*)cc1

Tested on: L1210 leukemia ip in BDF1 mice, survival T/C
Assay: NCI In Vivo Anticancer Drug Screen. Data for tumor model L1210 Leukemia (intraperitoneal) in B6D2F1 (BDF1) mice
Conditions: endpoint: mean survival time, higher = longer survival
Summary of the method: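 Antitumor effect is assessed in tumor-bearing animals. Survival in the compound arm is compared with a vehicle-dosed control arm and expressed as their quotient.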

[1] = dose: 100.0 mg/kg/injection, schedule: Q01DX009 (ip), vehicle: Klucel (hydroxypropylcellulose) (HPC)
[2] = dose: 100.0 mg/kg/injection, schedule: Q04DX003 (ip), vehicle: Klucel (hydroxypropylcellulose) (HPC)
[3] = dose: 200.0 mg/kg/injection, schedule: Q01DX009 (ip), vehicle: Klucel (hydroxypropylcellulose) (HPC)
[4] = dose: 200.0 mg/kg/injection, schedule: Q04DX003 (ip), vehicle: Klucel (hydroxypropylcellulose) (HPC)
[5] = dose: 400.0 mg/kg/injection, schedule: Q01DX009 (ip), vehicle: Klucel (hydroxypropylcellulose) (HPC)
[6] = dose: 400.0 mg/kg/injection, schedule: Q04DX003 (ip), vehicle: Klucel (hydroxypropylcellulose) (HPC)
[7] = dose: 100.0 mg/kg/injection, schedule: Q04DX003 (ip), vehicle: saline with Tween-80
[8] = dose: 200.0 mg/kg/injection, schedule: Q04DX003 (ip), vehicle: saline with Tween-80
[9] = dose: 400.0 mg/kg/injection, schedule: Q04DX003 (ip), vehicle: saline with Tween-80
[10] = dose: 75.0 mg/kg/injection, schedule: Q01DX001 (ip), vehicle: saline
[11] = dose: 150.0 mg/kg/injection, schedule: Q01DX001 (ip), vehicle: saline
[12] = dose: 100.0 mg/kg/injection, schedule: Q01DX001 (ip), vehicle: saline
[13] = dose: 200.0 mg/kg/injection, schedule: Q01DX001 (ip), vehicle: saline
[14] = dose: 400.0 mg/kg/injection, schedule: Q01DX001 (ip), vehicle: saline
[15] = dose: 100.0 mg/kg/injection, schedule: Q01DX009 (ip), vehicle: saline with Tween-80
[16] = dose: 200.0 mg/kg/injection, schedule: Q01DX009 (ip), vehicle: saline with Tween-80
[17] = dose: 100.0 mg/kg/injection, schedule: Q01DX001 (ip), vehicle: saline with Tween-80
[18] = dose: 200.0 mg/kg/injection, schedule: Q01DX001 (ip), vehicle: saline with Tween-80
[19] = dose: 400.0 mg/kg/injection, schedule: Q01DX001 (ip), vehicle: saline with Tween-80

Measured: T/C

CN(C)C=NC1c2ccccc2CCc2ccccc21
inactive: [1] 98 % of control | [2] 104 % of control | [3] 97 % of control | [4] 91 % of control | [5] 100 % of control | [6] 94 % of control

CCC(C)COC(=O)Nc1cccc(OC(=O)NC)c1 (configuration not stated)
inactive: [7] 97 % of control | [8] 102 % of control | [9] 102 % of control

CC(O)(C(=O)O)c1ccccc1O (configuration not stated)
inactive: [10] 98 % of control | [11] 96 % of control | dose: 300.0 mg/kg/injection, schedule: Q01DX001 (ip), vehicle: saline 93 % of control

O=[N+]([O-])c1ccc(Oc2ccccc2[N+](=O)[O-])cc1
inactive: dose: 222.0 mg/kg/injection, schedule: Q01DX Z (ip), vehicle: methylcellulose (MC) 95 % of control | dose: 333.0 mg/kg/injection, schedule: Q01DX Z (ip), vehicle: methylcellulose (MC) 95 % of control | dose: 500.0 mg/kg/injection, schedule: Q01DX Z (ip), vehicle: methylcellulose (MC) 86 % of control

Cc1ccc(S(=O)(=O)N/N=C/c2ccc(C)s2)cc1
inactive: [7] 95 % of control | [8] 91 % of control | [9] 87 % of control

CC(C)N1CSC(=S)N(Cc2ccccc2)C1
inactive: dose: 50.0 mg/kg/injection, schedule: Q01DX009 (ip), vehicle: Klucel (hydroxypropylcellulose) (HPC) 108 % of control | [1] 92 % of control | [2] 98 % of control | [3] 91 % of control | [4] 95 % of control | [5] 94 % of control | [6] 90 % of control

NNC(=O)Cc1ccc([N+](=O)[O-])cc1
inactive: dose: 50.0 mg/kg/injection, schedule: Q01DX009 (ip), vehicle: saline 94 % of control | [12] 97 % of control | dose: 100.0 mg/kg/injection, schedule: Q01DX009 (ip), vehicle: saline 103 % of control | [13] 94 % of control | dose: 200.0 mg/kg/injection, schedule: Q01DX009 (ip), vehicle: saline 105 % of control

CCOCc1cc(Cc2cc(COCC)c3cccnc3c2O)c(O)c2ncccc12
inactive: dose: 75.0 mg/kg/injection, schedule: Q01DX001 (ip), vehicle: carboxymethylcellulose (CMC) 97 % of control | dose: 150.0 mg/kg/injection, schedule: Q01DX001 (ip), vehicle: carboxymethylcellulose (CMC) 105 % of control | dose: 300.0 mg/kg/injection, schedule: Q01DX001 (ip), vehicle: carboxymethylcellulose (CMC) 103 % of control

CS(=O)(=O)NC[C@H](Cl)[C@@H](Cl)CNS(C)(=O)=O
inactive: [12] 100 % of control | [13] 102 % of control | [14] 91 % of control

COc1ccc2cc(C)ncc2c1
inactive: [12] 96 % of control | [13] 91 % of control | [14] 91 % of control

O=C(Nc1ccccc1C(=O)c1ccccc1)c1ccc(Cl)cc1Cl
inactive: dose: 50.0 mg/kg/injection, schedule: Q01DX009 (ip), vehicle: saline with Tween-80 105 % of control | [15] 94 % of control | [16] 87 % of control

C[N+](C)(C)Cn1nnc2ccccc21
inactive: [10] 105 % of control | [11] 108 % of control

S=c1nc[nH]c2c1ncn2CN1CCOCC1
active: dose: 80.0 mg/kg/injection, schedule: Q01DX015 (ip), vehicle: saline 153 % of control | dose: 120.0 mg/kg/injection, schedule: Q01DX009 (ip), vehicle: carboxymethylcellulose (CMC) 168 % of control | dose: 135.0 mg/kg/injection, schedule: Q01DX015 (ip), vehicle: saline 152 % of control | dose: 177.0 mg/kg/injection, schedule: Q01DX001 (ip), vehicle: saline 152 % of control | dose: 266.0 mg/kg/injection, schedule: Q01DX001 (ip), vehicle: saline 163 % of control | dose: 400.0 mg/kg/injection, schedule: Q01DX001 (ip), vehicle: carboxymethylcellulose (CMC) 164 % of control and 166 % of control | [14] 152 % of control | dose: 600.0 mg/kg/injection, schedule: Q01DX001 (ip), vehicle: saline 152 % of control
inactive: dose: 30.0 mg/kg/injection, schedule: Q01DX015 (ip), vehicle: saline 119 % of control | dose: 42.0 mg/kg/injection, schedule: Q01DX009 (ip), vehicle: carboxymethylcellulose (CMC) 118 % of control | dose: 100.0 mg/kg/injection, schedule: Q01DX001 (ip), vehicle: carboxymethylcellulose (CMC) 112 % of control | [12] 110 % of control | [13] 122 % of control | dose: 200.0 mg/kg/injection, schedule: Q01DX009 (ip), vehicle: carboxymethylcellulose (CMC) 91 % of control

COC(=O)C(Cc1ccc(O)cc1)NC(=O)C(CSCc1ccccc1)NC(=O)OCc1ccccc1 (configuration not stated) (Cbz-Cys(Bn)-Tyr-OMe; configuration not given here)
inactive: dose: 100.0 mg/kg/injection, schedule: Q04DX003 (ip), vehicle: DMSO 94 % of control | dose: 200.0 mg/kg/injection, schedule: Q04DX003 (ip), vehicle: DMSO 98 % of control | dose: 400.0 mg/kg/injection, schedule: Q04DX003 (ip), vehicle: DMSO 91 % of control

CCN(CC)c1ccc(N=C2C=C(C(=O)Nc3ccccc3)C(=O)c3ccccc32)cc1
inactive: dose: 100.0 mg/kg/injection, schedule: Q01DX001 (ip), vehicle: other 86 % of control | dose: 200.0 mg/kg/injection, schedule: Q01DX001 (ip), vehicle: other 89 % of control | dose: 400.0 mg/kg/injection, schedule: Q01DX001 (ip), vehicle: other 88 % of control

N#Cc1csc(CCNC(=O)c2ccccc2)n1
inactive: [17] 105 % of control | [7] 100 % of control | [18] 104 % of control | [8] 93 % of control | [19] 93 % of control | [9] 94 % of control

Clc1nc(Cl)c2c3c(sc2n1)CCCC3
inactive: dose: 100.0 mg/kg/injection, schedule: Q01DX001 (ip), vehicle: saline sonified 92 % of control | dose: 200.0 mg/kg/injection, schedule: Q01DX001 (ip), vehicle: saline sonified 107 % of control | dose: 400.0 mg/kg/injection, schedule: Q01DX001 (ip), vehicle: saline sonified 90 % of control

O=[N+]([O-])c1ccc(S(=O)(=O)Cl)c(Cl)c1
inactive: [12] 100 % of control | [13] 96 % of control | [14] 92 % of control

CCN(CC)CC(=O)c1ccc(O)c(O)c1
inactive: dose: 53.0 mg/kg/injection, schedule: Q01DX Z (ip), vehicle: carboxymethylcellulose (CMC) 109 % of control | dose: 83.0 mg/kg/injection, schedule: Q01DX Z (ip), vehicle: carboxymethylcellulose (CMC) 120 % of control | dose: 125.0 mg/kg/injection, schedule: Q01DX Z (ip), vehicle: carboxymethylcellulose (CMC) 105 % of control | dose: 187.0 mg/kg/injection, schedule: Q01DX Z (ip), vehicle: carboxymethylcellulose (CMC) 115 % of control

CC(=O)OC1C=C2CCC3C(CC(=O)C4(C)C3CC3OC34C(C)=O)C2(C)CC1 (configuration not stated)
inactive: dose: 12.5 mg/kg/injection, schedule: Q04DX002 (ip), vehicle: saline 98 % of control | dose: 25.0 mg/kg/injection, schedule: Q04DX002 (ip), vehicle: saline 102 % of control | dose: 50.0 mg/kg/injection, schedule: Q04DX002 (ip), vehicle: saline 109 % of control

COC(=O)C(CSCSC)NC(=O)/C=C/c1ccccc1C (configuration not stated)
inactive: [15] 101 % of control | [7] 95 % of control | [16] 101 % of control | [8] 93 % of control | dose: 400.0 mg/kg/injection, schedule: Q01DX009 (ip), vehicle: saline with Tween-80 113 % of control | [9] 97 % of control

CCOC(=O)C(OCc1ccccc1)(C(=O)NCCc1ccc(OC)c(OC)c1)C(C)C (configuration not stated)
inactive: dose: 25.0 mg/kg/injection, schedule: Q01DX009 (ip), vehicle: other 108 % of control | dose: 50.0 mg/kg/injection, schedule: Q01DX009 (ip), vehicle: other 108 % of control | dose: 100.0 mg/kg/injection, schedule: Q01DX009 (ip), vehicle: other 103 % of control | dose: 200.0 mg/kg/injection, schedule: Q01DX009 (ip), vehicle: other 99 % of control | dose: 400.0 mg/kg/injection, schedule: Q01DX009 (ip), vehicle: other 91 % of control

CCOC(=O)C(C)Oc1cccc(O)c1[N+](=O)[O-] (configuration not stated)
inactive: [17] 95 % of control | [18] 97 % of control | [19] 90 % of control
